Experimental data as given in PubChem BioAssay AID2060893 (Molecular Pharmacology Branch, DTP, NCI, 2025).

System: K86415-001-R-J1-PDC complex spheroids, viability
Assay: Anticancer human tumor K86415-001-R-J1-PDC patient-derived lung adenocarcinoma cell line growth inhibition [RAS]
Conditions: for viability, T/C: stronger effect = lower value
How it was run: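 Tumour cells grown as complex spheroids with HUVEC endothelial cells and mesenchymal stem cells, treated with RAS pathway inhibitor combinations. Each agent spans half-log steps from near clinical Cmax, or 10 microM where Cmax is unknown.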
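Further: spheroids exposed to agents for seven days before readout.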

C#Cc1c(F)ccc2cc(O)cc(-c3ncc4c(N5CC6CCC(C5)N6)nc(OCC56CCCN5CC(F)C6)nc4c3F)c12 (centres undefined)
viability, T/C (compound 0.0316 µM): 101% [middle of 8 runs] | viability, T/C (compound 0.1 µM): 106% [middle of 8 runs] | viability, T/C (compound 0.316 µM): 88.2% [middle of 8 runs] | viability, T/C (compound 1 µM): 65.2% [middle of 8 runs] | viability, T/C (compound 3.16 µM): 38.2% [middle of 8 runs] | viability, T/C (compound 10 µM): 17.8% [middle of 8 runs] | IC50 (compound alone, run of 07/15/2024): 1.81 µM [middle of 7 runs]

Cc1nc(N2CCC3(CC2)COC(C)C3N)c(CO)nc1Sc1ccnc(N)c1Cl (centres undefined) + CCn1c(-c2cc(N3CCN(C)CC3)cnc2C(C)OC)c2c3cc(ccc31)-c1csc(n1)CC(NC(=O)C1CC1C)C(=O)N1CCCC(N1)C(=O)OCC(C)(C)C2
IC50 (curve of first compound, second compound 0.000949 µM): < 31.6 nM | IC50 (curve of first compound, second compound 0.003 µM): < 31.6 nM | IC50 (curve of first compound, second compound 0.00949 µM): < 31.6 nM | IC50 (curve of first compound, second compound 0.03 µM): < 31.6 nM | IC50 (curve of first compound, second compound 0.0949 µM): < 31.6 nM | IC50 (curve of first compound, second compound 0.3 µM): < 31.6 nM | viability, T/C (second compound 0.000949 µM, first compound 0.0316 µM): 35.8% | viability, T/C (second compound 0.000949 µM, first compound 0.1 µM): 20.5% | viability, T/C (second compound 0.000949 µM, first compound 0.316 µM): 9.55% | viability, T/C (second compound 0.000949 µM, first compound 1 µM): 10.9% | viability, T/C (second compound 0.000949 µM, first compound 3.16 µM): 7.52% | viability, T/C (second compound 0.000949 µM, first compound 10 µM): 7.71% | viability, T/C (second compound 0.003 µM, first compound 0.0316 µM): 15.5% | viability, T/C (second compound 0.003 µM, first compound 0.1 µM): 11.7% | viability, T/C (second compound 0.003 µM, first compound 0.316 µM): 7.5% | viability, T/C (second compound 0.003 µM, first compound 1 µM): 6.79% | viability, T/C (second compound 0.003 µM, first compound 3.16 µM): 4.71% | viability, T/C (second compound 0.003 µM, first compound 10 µM): 4.41% | viability, T/C (second compound 0.00949 µM, first compound 0.0316 µM): 10.5% | viability, T/C (second compound 0.00949 µM, first compound 0.1 µM): 6.46% | viability, T/C (second compound 0.00949 µM, first compound 0.316 µM): 5.74% | viability, T/C (second compound 0.00949 µM, first compound 1 µM): 4.02% | viability, T/C (second compound 0.00949 µM, first compound 3.16 µM): 3.99% | viability, T/C (second compound 0.00949 µM, first compound 10 µM): 4.11% | viability, T/C (second compound 0.03 µM, first compound 0.0316 µM): 5.58% | viability, T/C (second compound 0.03 µM, first compound 0.1 µM): 3.68% | viability, T/C (second compound 0.03 µM, first compound 0.316 µM): 4.39% | viability, T/C (second compound 0.03 µM, first compound 1 µM): 3.48% | viability, T/C (second compound 0.03 µM, first compound 3.16 µM): 3.37% | viability, T/C (second compound 0.03 µM, first compound 10 µM): 3.97% | viability, T/C (second compound 0.0949 µM, first compound 0.0316 µM): 3.82% | viability, T/C (second compound 0.0949 µM, first compound 0.1 µM): 3.07% | viability, T/C (second compound 0.0949 µM, first compound 0.316 µM): 3.2% | viability, T/C (second compound 0.0949 µM, first compound 1 µM): 3.97% | viability, T/C (second compound 0.0949 µM, first compound 3.16 µM): 3.81% | viability, T/C (second compound 0.0949 µM, first compound 10 µM): 3.34% | viability, T/C (second compound 0.3 µM, first compound 0.0316 µM): 2.66% | viability, T/C (second compound 0.3 µM, first compound 0.1 µM): 3.52% | viability, T/C (second compound 0.3 µM, first compound 0.316 µM): 3.88% | viability, T/C (second compound 0.3 µM, first compound 1 µM): 3.34% | viability, T/C (second compound 0.3 µM, first compound 3.16 µM): 4.46% | viability, T/C (second compound 0.3 µM, first compound 10 µM): 2.74%
